The target of data set [1] is T1, Nck1-SH3.1 (Homo sapiens, UniProt P16333).
T1 construct: His10-Avi-TEV-Nck1-SH3.1 (residues 1–61, MM 11,847 Da) was biotinylated and immobilized via streptavidin; made in house; host or cells: Escherichia coli BL21 (DE3)
The experiment in a line: SPR binding to immobilized Nck1-SH3.1. The note with it: AX-024 up to 100 μM; 1260 RU; 20 °C, pH 7.8. The protocol:
SPR experiments were conducted on a T200 Biacore instrument (GE Healthcare, Uppsala, Sweden) at 20 °C in 10 mM HEPES/NaOH, pH 7.8, 150 mM NaCl, 1 mM TCEP. […] Streptavidin is immobilized on the CAP sensor by way of double-strand DNA formation. A ssDNA is covalently coupled to the sensor surface, and a complementary DNA strand, covalently linked to streptavidin, is hybridized. To regenerate the surface, the DNA duplex is dissociated by washing with high-ionic strength solution. […] The reference channel for binding studies contained the same streptavidin-coated surface blocked with biotin.
Five replicates were performed for each CD3ϵ concentration (Table S1), whereas for the qualitative assessment of the APVA variant, only a single titration was performed.
SPR equilibrium signals were corrected for the signal in the reference channel and buffer contributions. The resulting SPR amplitudes were plotted as a function of peptide concentration, and a simple binding equation describing a Langmuir adsorption isotherm was fit to the data (GraphPad Prism) to extract the equilibrium dissociation constant Kd. (Eq. 1) RU=RUmax·[peptide]/[peptide]+Kd
A general note: In SPR one partner is held on a chip, and binding of the other changes the refractive index at the surface.

Data set [2] deals with CD3ϵ peptide/Nck1-SH3.1 interaction. Description: SPR competition with CD3ϵ peptide on immobilized Nck1-SH3.1. It counts as binding, human. As to conditions: 100 μM AX-024 co-injected with 100 μM CD3ϵ peptide. As to the method: SPR experiments were conducted on a T200 Biacore instrument (GE Healthcare, Uppsala, Sweden) at 20 °C in 10 mM HEPES/NaOH, pH 7.8, 150 mM NaCl, 1 mM TCEP. His10-Avi-TEV-Nck1-SH3.1 (residues 1–61, MM 11,847 Da) was biotinylated and immobilized via streptavidin on the surface of either a CAP or a SA sensor, prepared according to the manufacturer's instructions (GE Healthcare). Streptavidin is immobilized on the CAP sensor by way of double-strand DNA formation. A ssDNA is covalently coupled to the sensor surface, and a complementary DNA strand, covalently linked to streptavidin, is hybridized. To regenerate the surface, the DNA duplex is dissociated by washing with high-ionic strength solution. Thus, after each titration, fresh biotinylated Nck1-SH3.1 was immobilized on the sensor surface. For CD3ϵ peptide-binding experiments, the surface density of the Nck1-SH3.1 domain was ∼250 response units (RU), whereas for binding experiments with AX-024 and APVA variant peptides, the surface density of Nck1-SH3.1 was increased to 1260 RU. […]
Binding of the CD3ϵ-derived peptide […]-NH2 (CD3ϵ residues 173–188; MM 1864.1 Da) or of the APVA variant […]-NH2 (MM 1811.1 Da) to the immobilized Nck1-SH3.1 domain was monitored in a concentration-dependent manner between 0.4 and 100 μM CD3ϵ peptide (200 μM in the case of the APVA variant peptide). […]

Data set [3] concerns Zap70 phosphorylation in anti-CD3–stimulated T cells. As to conditions: ref [10]; cited from earlier work. As to the method:
It was shown previously that Nck contributes to TCR signaling after weak stimulation of T cells. […] To obtain a strong dependence of TCR signaling on Nck, different stimulation conditions with low concentrations of anti-CD3 in the absence of co-stimulatory signals were assessed in the presence of AX-024 (Fig. 4). […] At the outset of this study, further development of AX-024, published as a PPI of the Nck1/CD3ϵ interaction ([10]), was anticipated. Unfortunately, we could not replicate all biological effects attributed to this compound. […] Whereas there is an inhibitory effect of AX-024 on T cell proli ...

The subject of data set [4] is 5-HT2B. Description: Selectivity panel (Eurofins, CEREP). Format: binding. As to conditions: 10 μM AX-024, single point; human receptor; radioactive antagonist ligand. The protocol: (§1) AX-024 was submitted to a selectivity panel comprising 50 recurring off-targets, including G protein–coupled receptors, channels, transporters, and metabolic enzymes (Eurofins, CEREP).
(§2) Supplemental Table 1: SPR peptide titrations
(§3) Single point measurements at 10 μM for 50 targets in a selectivity panel.
(§4) human receptors, except for the Ca2+ channel, which is from rat. A radioactive antagonist ligand was used
(§5) for the detection. The tests were conducted by Euro fins (https://www.eurofinsdiscoveryservices.com ).

The subject of data set [5] is Muscarinic M2. The experiment in a line: Selectivity panel (Eurofins, CEREP). Format: binding. As to conditions: 10 μM AX-024, single point; human receptor; radioactive antagonist ligand. As to the method:
as §1, §2, §3, §4, §5

Data set [6] concerns Ca2+ channel (CaV1.2) (L, diltiazem site). The experiment in a line: Selectivity panel (Eurofins, CEREP). It counts as binding. As to conditions: probe radioactive antagonist ligand, 10 μM AX-024, single point, rat Ca2+ channel. As to the method:
as §1, §2, §3, §4, §5

Data set [7] has as its system α 1A adrenoreceptor. Description: Selectivity panel (Eurofins, CEREP). It counts as binding. The note with it: 10 μM AX-024, single point; human receptor; radioactive antagonist ligand. As to the method: as §1, §2, §3, §4, §5
The subject of data set [8] is Muscarinic M1. The experiment in a line: Selectivity panel (Eurofins, CEREP). Format: binding. The note with it: 10 μM AX-024, single point; human receptor; radioactive antagonist ligand. The protocol: as §1, §2, §3, §4, §5
Data set [9] has as its system Dopamine D1. The experiment in a line: Selectivity panel (Eurofins, CEREP). It counts as binding. The note with it: 10 μM AX-024, single point; human receptor; radioactive antagonist ligand. As to the method:
as §1, §2, §3, §4, §5

The subject of data set [10] is Histamine H3. Description: Selectivity panel (Eurofins, CEREP). Format: binding. As to conditions: 10 μM AX-024, single point; human receptor; radioactive antagonist ligand. As to the method:
as §1, §2, §3, §4, §5

The test system of data set [11] is T cell proliferation. The note with it: response to weak antigens; ref [10]; cited from earlier work. From the text:
(§6) The objective of the present study was to initiate development of an inhibitor of the Nck/TCR interaction, specifically by blocking binding of the first SH3 domain in Nck (Nck1-SH3.1) to the PRS in the CD3ϵ subunit of the TCR.

Data set [12] relates to Nck1-SH3.1. The note with it: in vitro; ref [10]; cited from earlier work.
Text: as §6

Entries after “also recorded” stand apart in the source; their conditions may differ.

Turning to `COc1ccc2c(c1)C(c1ccc(F)cc1)=C(CN1CCCC1)CO2.Cl` [AX-024, 1-((4-(4-fluorophenyl)-6-methoxy-2H-chromen-3-yl)methyl)pyrrolidine hydrochloride], the “direct binding to immobilized Nck1-SH3.1 by SPR” value in data set [1] was “does not bind to Nck1-SH3.1; also recorded: no direct binding of AX-024 to immobilized Nck1-SH3.1 was detectable”. In addition, the “effect on binding of CD3ϵ peptide to Nck1-SH3.1 (competition)” value in [2] was “unaffected by AX-024; also recorded: failed to show an effect on binding of CD3ϵ to immobilized Nck1-SH3.1”. In addition, the “reduction of Zap70 phosphorylation” value in data set [3] is “reduces Zap70 phosphorylation to the same level as in unstimulated T cells; also recorded: reduces ZAP70 phosphorylation in anti-CD3–stimulated T cells to levels comparable with unstimulated T cells”. Besides, the % inhibition (in general, the percentage by which the read-out fell short of the control) in [4] came out at 80.1%; in data set [5] it was 81.3%; in data set [7], 79.3%; in data set [8] it was 95.0%; in data set [9], 85.3%; in data set [10], 95.1%. Moreover, in data set [6], the inhibition (as a rule, the percentage by which the read-out fell short of the control) at 10 μM turned out to be 66.3%. Further, in [11], the “inhibition of T cell proliferation” value is “inhibit T cell proliferation specifically in response to weak antigens”. Further, in [12], the “physical interaction with Nck1-SH3.1 (SPR and NMR)” value was “appeared to support physical interaction of AX-024 with the Nck1-SH3.1 domain”.
